Test results published in US20110113495A1, “SCREENING METHOD FOR AGENTS SUITABLE FOR PROPHYLAXIS AND THERAPY OF ALZHEIMER'S DISEASE (AD)” (priority 2008, published 2011).
“Also recorded” adds a separate entry of the source.

Key:
[1] = tested on: primary hippocampal rat neurons; experiment: Toxicity test (MultiTox-Fluor) with primary hippocampal rat neurons; type: cell-based; settings: normalized peptide concentration, 48 h
Protocol: Hippocampi from P0-P1 Wistar rat pups were used for primary neuronal dissociated cultures. Tissue was dissected in HBSS containing Ca^2+ and Mg^2+ and incubated with an enzyme solution containing 1 mM CaCl2, 0.5 mM EDTA Ph 8.0, 2 mg/ml Cystein and 200-250 units papain (Worthington) in BME for 60 min at 37° C. Supernatant was removed and cells were incubated in inactivation solution (2.5 mg/ml BSA, 2.5 mg/ml Trypsin inhibitor (both Sigma) and 10% FCS in BME) for 5 min at. RT. Tissue clumps were dissociated by repeated passage through 1 ml pipettes. Cells were centrifuged for 10 min at 12000 rpm, 4° C. and resuspended in Neurobasal A medium supplemented with 2% B27, 2 mM Glutamax and 0.2% Penicillin/Streptomycin (all Gibco). Neurons were cultured on glia cell feeder layers in 96 well plates with 5×10^3 cells in 100 μl medium. For feeder layer cultures rat P0-P1 cortices were prepared as described above and cultured at a density of 1×10^6 cells in a T75 flask for at least one week in BME medium supplemented with 10% FCS, 5 mM glucose, 1 mM Glutamax, 10 mM Hepes, 2.5 μg/ml insulin, 0.2% Penicillin/Streptomycin. Cells were trypsinized and 2×10^3 cells per well were seeded in 96 wells plates four days before neurons were added.
After ten days of incubation neuronal cultures were treated with Aβ1-42 freshly dissolved in H2O or with SEC fractions for another 48 h. Neuronal viability was detected by using MultiTox-Fluor Multiplex Cytotxicity assay (Promega) as recommended by the producer.
Cells treated with buffer only were set as non-toxic.

[2] = tested on: SH-SY5Y cells (human neuroblastoma cells); experiment: Toxicity test (MTT) with human neuroblastoma cells; type: cell-based; settings: 10 μM peptide or SEC fractions, 12 h
Protocol: SH—SY5Y cells were routinely cultured in DMEM/Ham'sF12 medium (PAA) supplemented with 10% (v/v) bovine calf serum, 2 mM glutamine, 0.1 mM non-essential amino acids and 0.5 mM sodium pyruvate in a 5% CO2 humidified atmosphere at 37° C.
Cells were plated at a density of 1.000 cells per well in 100 μl of fresh medium on 96-well plates. After 48 h medium was replaced by DMEM/Ham's F12 with 100 Uml^−1 penicillin and 10 μg streptomycin including 10 μM peptide, freshly dissolved in H2O containing 0.125% NH3 or fractions received by size exclusion chromatography. Probe and control were incubated for 12 h. Cell mediated reduction of 3-(4,5-dimethylthiazol-2-yl)-2,5-diphenyltetrazolium bromide (MTT) was used to monitor Aβ toxicity by addition of 10 μl of a 5 mgml^−1 MTT stock solution and incubation for further 1-2 h. Before measuring the absorbance of blue formazan at 562 nm using an automatic micro plate reader, cells were lysed with 50 μl DMSO for 10 minutes at room temperature.
The toxic effects of various oligomers on human neuroblastoma cells was determined by use of the MTT test allowing to quantify the toxicity.

[3] = tested on: acute hippocampal rat brain sections or slices (area CA1 fEPSPs); experiment: Long term potentiation (LTP) of acute hippocampal rat brain slices; settings: slices incubated with 500 nM peptide 20 min prior to tetanisation
Protocol: Hippocampal slices were prepared from 3-6 week old Wistar rats. Rats were decapitated under ether anesthesia. The brain was removed quickly and sectioned into 300 μm thick slices using a vibroslicer (Leica). The slices were maintained at room temperature in a holding chamber containing oxygenated artificial cerebrospinal fluid (ACSF; 129 mM NaCl, 1 mM NaH2PO4, 10 mM Glucose, 1.8 mM MgSO4, 1.6 mM CaCl2, 3 mM KCl, NaHCO3 21 mM). (Ringer: 119 mM NaCl, 1 mM NaH2PO4, 10 mM Glucose, 1.3 mM MgSO4, 2.5 mM CaCl2, 2.5 mM KCl, NaHCO3 26 mM) Ph 7.2-7.4 Osmolarität 0.28-0.31 Osmol/kg.
After at least 1 h equilibration, slices were transferred into submerged recording chamber and continuously perfuse with room temperature oxygenated ACSF at 3 ml/min throughout the experiments. […] Peptide was not washed during the experiment.
Field excitatory postsynaptic potentials (fEPSPs) were recorded of stratum radiatum area CA1 evoked by Schaffer collateral stimulation with ACSF filled electrodes. Two independent pathways were measured whereas two stimulating electrodes lay parallel to each other.
Baseline responses were collected using test pulses that yield 30-40% of the maximal fEPSP slope. LTP was induced by Theta brust stimulation (TBS) of one of the two pathways. The inter-theta burst stimulation interval was 20 sec and four TBSs were applied to induce LTP. TBS consisted of 10 bursts delivered at 5 Hz. Each burst consisted of four pulses delivered at 100 Hz with a pulse-duration of 0.2 msec. (Evers M., Salmen B., Schachner M., 2002 J. Neuroscience)
The amount of LTP was described as percent changes of (EPSP slopes after TBS normalized to baseline values with an additional subtraction of the second, unstimulated pathway. Slopes were analysed using IGOR program.
In order to assay whether Aβ oligomers show an effect on learning and commemoration LTP (long term potentiation) of acute hippocampal sections of rat brains was determined. Several recent publications report on the inhibition of LTP by Aβ1-42. This effect can be equated with cognitive deficiencies observed for AD patients. In order to further improve these performance tests and to minimize possible side effects of the peptides on the general network plasticity of the sections, two independent neuronal pathways were assayed. Whereas the first pathway was stimulated for inducing LTP, the second one was assayed unstimulated as a control. It could be confirmed that Aβ peptides inhibit LTP.

[4] = Size exclusion chromatography of freshly dissolved Aβ1-42 peptides (oligomer size distribution); type: physicochemical; settings: freshly dissolved peptide 1 mg/ml, Superose 12 column, 1×PBS
Protocol: In order to discriminate the various oligomeric forms of Aβ wildtype and mutant peptides, a size exclusion chromatography was performed. Therefore, a Superose 12 column (Amersham Bioscience) was equilibrated with 1×PBS (137 mM NaCl, 2.7 mM KCl, 10 mM Na2HPO4, 2 mM KH2PO4) under conditions recommended by the manufacturer. Thereafter 1 mg peptide was monomerized with 50 μl concentrated formic acid and evaporated. Peptides were solubilized in H2O containing 0.125% NH3 to a final concentration of 1 mg/ml.
A volume of 500 μl was centrifuged at maximal speed for 10 minutes and loaded on the column with a flow rate of 0.5 ml/min. For determination of the peptide concentration, fractions were tested with Bradford-, BCA-assay and dot blot analysis. The collected fractions were immediately applied for further analysis.
In this study it was investigated to what extent the GxxxG motif effects the aggregation of Aβ1-42 peptides. Aβ1-42 peptides and the oligomers were separated by use of SEC.

Substance | toxic effect (Multi-tox) [1] | toxic effect (MTT) [2] | LTP induction after theta burst stimulation [3] | oligomer size distribution / aggregation by SEC [4] | oligomer size distribution / aggregation by SEC ([4]; listed as Aβ1-42) | LTP induction after theta burst stimulation ([3]; listed as tetramers of the Aβ1-42G33A peptide) | oligomer size distribution / aggregation by SEC ([4]; listed as G33A)
Aβ1-42 tetramers: tetramers (SEC fraction) of wild type Aβ1-42 peptide [reference compound] | highest toxicity | highest toxicity | cause a measurable loss of cognitive performance |  |  |  | 
Aβ1-42 wt: wild type amyloid beta 1-42 peptide containing the G29xxxG33 motif [reference compound] | strong toxic effect | strong toxic effect | no LTP is induced | immediately aggregates to 4- and 6-mers | 4- to 6mers |  | 
Aβ1-42G29/33A: Aβ1-42 double mutant G29/33A | weak toxicity | only weak toxicity |  | Most of the oligomers have a low MW, but large amounts of oligomers having a higher MW are already visible |  |  | 
Aβ1-42G29A: Aβ1-42 peptide with mutation at position 29 (G to A) | strong toxic effect | strong toxic effect |  |  |  |  | 
Aβ1-42G33A tetramers: tetramers of the Aβ1-42G33A peptide |  | no toxic effects were observed | correspond to the results obtained for Aβ1-42G331 |  |  | LTP could be induced | 
Aβ1-42G33A: Aβ1-42 peptide with glycine at position 33 replaced by alanine |  |  |  | shift to oligomers with a higher MW |  |  | minor amounts of tetramers are still detectable
Aβ1-42G331: Aβ1-42 peptide with glycine at position 33 replaced by isoleucine |  |  | induced LTP shows the same value as the control; also recorded: LTP could be induced |  |  |  | 
